Test results published in patent US6995123B2, “Use of multifunctional surface active agents to clean contact lenses” (Alcon, Inc., priority 2002, dated 2006).

System: protein deposits (i.e., lysozyme) from Group IV lenses
Experiment: In vitro cleaning efficacy: removal of lysozyme deposits from soiled contact lenses
Protocol: The formulations shown in Table 1 below were tested to evaluate the ability of the multifunctional surfactants described above to remove protein deposits (i.e., lysozyme) from Group IV lenses. The cleaning performance was compared to conventional cleaning agents. The test procedures are described below, and the cleaning results are set forth at the bottom of Table 1.
The materials and methods utilized in the evaluation were as follows: 1.311 g of monobasic sodium phosphate (monohydrate), 5.74 g of dibasic sodium phosphate (anhydrous), and 9.0 g of sodium chloride were dissolved in deionized water and the volume was brought to 1000 mL with deionized water after completely dissolving the solutes and adjusting pH (if needed). The final concentrations of sodium phosphate and sodium chloride were 0.05 M and 0.9 w/v %, respectively. The final pH was 7.4.
A 1.0-mg/mL lysozyme solution was prepared by dissolving 500 mg of lysozyme in 500-mL of phosphate buffered saline.
A lens extraction solution was prepared by mixing 1.0 mL of trifluoroacetic acid with 500-mL of acetonitrile and 500 mL of deionized water. The pH of the solution ranged from 1.5 to 2.0.
Each lens was immersed with 5 mL of lysozyme solution in a Wheaton glass sample vial. The vial was closed with a plastic snap cap and incubated in a constant temperature water bath at 37° C. for 24 hours. After incubation, the deposited lens was removed from the vial and rinsed by dipping into three consecutive beakers containing 50 mL of deionized water to remove any excess of the deposition solution. The lens was then blotted gently with a laboratory towel (Kaydry EX-L, from Kimberly-Clark). These lenses were used as a soiled lenses for the evaluation of cleaning efficacy of the test solutions.
The lens was immersed in a Wheaton glass sample vial containing 5 mL of UNISOL® 4 saline solution. The vial was closed with a plastic snap cap held secure with a metal clasp to prevent the cap from popping off during the thermal treatment. […]
Each soiled lens was soaked and shaken with 5 mL of the test solution in a scintillation vial at room temperature for 12 hours. […] The clean lenses were then subjected to the extraction procedure described below, and the amount of lysozyme present in the soaking solutions was measured with a fluorescence spectrophotometer. […]
A quantitative determination of the amount of lysozyme in the lens extract solution and lens soaking solutions was carried out by a fluorescence spectrophotometer interfaced with an autosampler and a computer. The fluorescence intensity of a 2 mL aliquot from each sample solution was measured by setting the excitation/emission wavelength at 280 nm/346 nm with excitation/emission slits of 2.5 nm/10 nm, respectively, and the sensitivity of the photomultiplier was set at 950 volts. […]

## CCCCCCCCCCCC(=O)N(CCN(CC(=O)[O-])CC(=O)[O-])CC(=O)[O-].[Na+].[Na+].[Na+] [LED3A, lauroyl ethylene diaminetriacetate]
LED3A 0.03% in borate buffered vehicle containing 0.6% sodium citrate
  cleaning efficacy: 29.5%
LED3A 0.075% in borate buffered vehicle containing 0.6% sodium citrate
  cleaning efficacy: 47.5%
LED3A 0.1% in borate buffered vehicle containing 0.6% sodium citrate
  cleaning efficacy: 56.0%
LED3A 0.2% in borate buffered vehicle containing 0.6% sodium citrate
  cleaning efficacy: 60.2%
